Experimental data published in US20110021505A1, “Use of sulfonyl-substituted 2-sulfonylaminobenzoic acid N-phenylamides in the treatment of pain” (SANOFI-AVENTIS DEUTSCHLAND GMBH, priority 2007, published 2011).

melting point [°C] | SMILES
182 | O=C(Nc1ccc(S(=O)(=O)N2CCS(=O)(=O)CC2)cc1)c1cc(Cl)ccc1NS(=O)(=O)c1ccc(Cl)cc1 [Example 92, 5-Chloro-2-(4-chloro-phenylsulfonylamino)-N-(4-(1,1-dioxo-thiomorpholine-4-sulfonyl)-phenyl)-benzamide]
214 | Cc1ccc(S(=O)(=O)Nc2ccc(Cl)cc2C(=O)Nc2ccc(S(=O)(=O)N3CCOCC3)cc2)cc1 [Example 57, 5-Chloro-N-(4-(morpholine-4-sulfonyl)-phenyl)-2-(4-methyl-phenylsulfonylamino)-benzamide]
246 | O=C(Nc1ccc(S(=O)(=O)N2CCSCC2)cc1)c1cc(Cl)ccc1NS(=O)(=O)c1ccc(Cl)cc1 [Example 15, 5-Chloro-2-(4-chloro-phenylsulfonylamino)-N-(4-(thiomorpholine-4-sulfonyl)-phenyl)-benzamide]
214 | COc1cc(NS(=O)(=O)c2ccc(Cl)s2)c(C(=O)Nc2ccc(S(=O)(=O)N(C)Cc3cccnc3)cc2)cc1OC.Cl
